Source: ChEMBL document CHEMBL1201862, “PubChem BioAssay data set” (2004)
Activity calls are given as the source filed them.

Experiments:
[1] = cytotoxicity in HEK-293T cells, dose response, cytotoxicity control for BCR NF-kB inhibitor project, luminescence, B-cell screen hits (AID 489021); type: functional, cell-based;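 further: HEK-293T cells carrying an NF-kB luciferase reporter; cells exposed to compound for about 14 hours before viability readout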
[2] = M. tuberculosis H37Rv growth inhibitors, H37Rv strain (AID 1626); type: functional
[3] = target: T1, Polyadenylate-binding protein 1 (Homo sapiens, UniProt P11940); test: PABP1 MLLE–PAM2 interaction inhibitors, dose response, miRNA deadenylation inhibitor project, biochemical, fluorescence polarization, Cy5-PAM2 peptide, secondary (AID 602260); type: functional; details: read-out: IC50_Mean
T1 sequence (P11940 whole entry): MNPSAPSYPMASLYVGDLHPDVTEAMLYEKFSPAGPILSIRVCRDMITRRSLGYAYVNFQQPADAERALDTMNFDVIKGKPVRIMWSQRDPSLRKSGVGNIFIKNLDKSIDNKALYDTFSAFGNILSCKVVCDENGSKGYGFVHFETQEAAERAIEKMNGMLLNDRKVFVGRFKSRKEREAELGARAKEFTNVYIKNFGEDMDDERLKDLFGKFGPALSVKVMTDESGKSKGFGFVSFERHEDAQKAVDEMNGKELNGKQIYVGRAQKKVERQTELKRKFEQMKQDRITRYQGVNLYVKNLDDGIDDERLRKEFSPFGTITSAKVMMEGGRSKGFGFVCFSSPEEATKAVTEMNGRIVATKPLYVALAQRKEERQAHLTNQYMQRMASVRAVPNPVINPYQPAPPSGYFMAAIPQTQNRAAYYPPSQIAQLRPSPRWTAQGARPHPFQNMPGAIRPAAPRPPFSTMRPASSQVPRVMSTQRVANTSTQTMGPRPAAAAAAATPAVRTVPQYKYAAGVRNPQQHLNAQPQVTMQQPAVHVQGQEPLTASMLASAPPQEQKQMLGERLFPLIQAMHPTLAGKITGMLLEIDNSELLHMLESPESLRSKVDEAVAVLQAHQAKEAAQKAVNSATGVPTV

[4] = target: T2, Low molecular weight phosphotyrosine protein phosphatase (Homo sapiens, UniProt P24666); type: functional; details: read-out: IC50_Mean;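 further: Dose-response confirmation assay measuring inhibition of LMPTP enzyme activity by fluorescence intensity read-out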
T2 sequence (P24666 whole entry): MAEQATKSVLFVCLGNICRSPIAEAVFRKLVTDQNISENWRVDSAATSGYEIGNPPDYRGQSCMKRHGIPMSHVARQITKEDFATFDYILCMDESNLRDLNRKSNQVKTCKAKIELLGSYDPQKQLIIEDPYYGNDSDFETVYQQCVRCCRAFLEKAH

[5] = target: T1, Polyadenylate-binding protein 1; test: PABP1 MLLE–PAM2 binding inhibitor potency, dose response, biochemical, fluorescence polarization, FITC-PAM2 peptide (AID 602259); type: functional; details: read-out: IC50_Mean
[6] = target: Glutathione-S-transferase (Schistosoma japonicum, UniProt Q26513); test: biotin-GST/anti-GST TR-FRET signal inhibitors, dose response, artefact control for Vif-APOBEC3G degradation inhibitor project, biochemical (AID 1117362); type: functional
Glutathione-S-transferase, sequence (Q26513 whole entry): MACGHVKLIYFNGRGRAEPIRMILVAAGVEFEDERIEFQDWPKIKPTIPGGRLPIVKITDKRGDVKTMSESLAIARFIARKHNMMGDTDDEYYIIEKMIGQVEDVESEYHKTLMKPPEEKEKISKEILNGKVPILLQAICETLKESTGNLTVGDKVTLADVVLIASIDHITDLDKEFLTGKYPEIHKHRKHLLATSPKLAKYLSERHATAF

[7] = ADAM10 protease inhibitors, dose response, selectivity assay for ADAM17 exosite inhibitor project, biochemical, FRET peptide substrate, recombinant human ADAM10 (AID 743259);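 further: ADAM10 enzyme cleaving a FRET peptide substrate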
[8] = target: Disintegrin and metalloproteinase domain-containing protein 17 (Homo sapiens, UniProt P78536); test: exosite inhibitors of ADAM17, dose response, biochemical (AID 743260)
Disintegrin and metalloproteinase domain-containing protein 17, sequence (P78536 whole entry, the tested form may be a part): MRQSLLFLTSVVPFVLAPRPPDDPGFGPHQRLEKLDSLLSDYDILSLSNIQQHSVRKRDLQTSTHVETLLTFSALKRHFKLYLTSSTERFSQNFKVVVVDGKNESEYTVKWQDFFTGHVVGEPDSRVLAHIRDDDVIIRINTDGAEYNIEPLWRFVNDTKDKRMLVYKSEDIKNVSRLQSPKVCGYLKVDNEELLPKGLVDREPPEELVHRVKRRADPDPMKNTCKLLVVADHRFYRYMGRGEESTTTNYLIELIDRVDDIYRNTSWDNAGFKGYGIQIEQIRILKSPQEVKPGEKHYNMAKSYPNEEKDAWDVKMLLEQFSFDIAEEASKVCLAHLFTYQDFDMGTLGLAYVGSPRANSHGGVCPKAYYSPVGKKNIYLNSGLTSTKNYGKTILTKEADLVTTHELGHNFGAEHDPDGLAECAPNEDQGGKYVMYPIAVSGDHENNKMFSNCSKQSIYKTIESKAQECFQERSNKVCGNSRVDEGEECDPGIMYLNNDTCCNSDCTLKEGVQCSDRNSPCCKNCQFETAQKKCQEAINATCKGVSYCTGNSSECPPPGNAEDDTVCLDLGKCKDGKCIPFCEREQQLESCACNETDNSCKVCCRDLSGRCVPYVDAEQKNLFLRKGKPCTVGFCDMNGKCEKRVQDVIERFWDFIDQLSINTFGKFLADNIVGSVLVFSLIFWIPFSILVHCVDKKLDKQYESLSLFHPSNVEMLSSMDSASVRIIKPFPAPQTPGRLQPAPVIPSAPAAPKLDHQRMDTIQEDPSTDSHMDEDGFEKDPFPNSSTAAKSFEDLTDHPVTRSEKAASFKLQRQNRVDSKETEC

[9] = target: Ephrin type-A receptor 4 (Mus musculus, UniProt Q03137); test: inhibitors of EphA4 binding to KYL peptide, primary screen, biochemical, colorimetric, mouse EphA4 (AID 689); type: functional
Ephrin type-A receptor 4, sequence (Q03137 whole entry): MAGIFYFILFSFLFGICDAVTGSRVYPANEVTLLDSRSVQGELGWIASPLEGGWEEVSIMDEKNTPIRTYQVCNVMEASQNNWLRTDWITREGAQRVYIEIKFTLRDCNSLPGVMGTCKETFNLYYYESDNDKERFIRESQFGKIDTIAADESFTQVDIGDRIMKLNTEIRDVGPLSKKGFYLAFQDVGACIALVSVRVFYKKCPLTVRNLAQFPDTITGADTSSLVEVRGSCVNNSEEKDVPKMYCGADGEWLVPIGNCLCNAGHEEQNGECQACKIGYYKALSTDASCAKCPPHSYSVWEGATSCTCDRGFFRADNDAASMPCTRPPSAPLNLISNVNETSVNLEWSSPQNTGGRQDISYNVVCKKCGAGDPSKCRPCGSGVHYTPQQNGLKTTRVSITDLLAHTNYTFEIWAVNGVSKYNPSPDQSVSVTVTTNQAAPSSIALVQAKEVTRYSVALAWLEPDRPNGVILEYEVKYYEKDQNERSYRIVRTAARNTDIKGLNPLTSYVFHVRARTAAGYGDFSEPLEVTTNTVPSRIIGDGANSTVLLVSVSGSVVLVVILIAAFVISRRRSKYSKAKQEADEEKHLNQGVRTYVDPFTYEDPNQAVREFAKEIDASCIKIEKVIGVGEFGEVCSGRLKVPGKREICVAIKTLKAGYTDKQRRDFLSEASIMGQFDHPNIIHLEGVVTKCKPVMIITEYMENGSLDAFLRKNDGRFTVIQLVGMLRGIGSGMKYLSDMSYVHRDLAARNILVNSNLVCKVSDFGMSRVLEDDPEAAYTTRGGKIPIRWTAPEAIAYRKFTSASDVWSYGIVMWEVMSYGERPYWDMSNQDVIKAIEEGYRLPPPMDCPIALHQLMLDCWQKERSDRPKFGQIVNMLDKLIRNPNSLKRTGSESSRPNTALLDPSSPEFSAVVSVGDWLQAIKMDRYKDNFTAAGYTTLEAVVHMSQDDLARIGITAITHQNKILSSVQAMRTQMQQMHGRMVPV

[10] = Luminescence-based cell-based high throughput dose response assay to identify activators of the DAF-12 from the parasite S. stercoralis (ssDAF-12).; type: functional
[11] = target: T3, Oxysterols receptor LXR-beta (Homo sapiens, UniProt P55055); test: LXR agonists, Gal4 luciferase reporter, dose response, counter-screen for ssDAF-12 agonist project, cell-based, luminescence, HEK293, S. stercoralis campaign (AID 720737); type: functional; details: read-out: IC50 (the source's name)
T3 sequence (P55055 whole entry): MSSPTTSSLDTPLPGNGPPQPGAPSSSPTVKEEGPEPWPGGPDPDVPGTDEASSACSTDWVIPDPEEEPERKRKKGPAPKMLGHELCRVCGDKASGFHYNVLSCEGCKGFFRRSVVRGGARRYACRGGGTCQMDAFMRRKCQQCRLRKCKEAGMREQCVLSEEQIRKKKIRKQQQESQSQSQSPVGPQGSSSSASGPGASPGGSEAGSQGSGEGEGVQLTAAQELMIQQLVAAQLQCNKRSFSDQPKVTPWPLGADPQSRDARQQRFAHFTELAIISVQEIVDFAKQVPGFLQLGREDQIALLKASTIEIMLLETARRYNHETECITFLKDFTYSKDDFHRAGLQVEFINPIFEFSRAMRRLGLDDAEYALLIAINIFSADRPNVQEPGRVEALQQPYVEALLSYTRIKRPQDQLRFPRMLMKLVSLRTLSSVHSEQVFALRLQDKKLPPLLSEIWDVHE

[12] = target: T4, Bcl-2-related protein A1 (Mus musculus, UniProt Q07440); test: Bfl-1 inhibitors blocking BH3 peptide binding, confirmation, biochemical, TR-FRET, mouse Bfl-1 (AID 621);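 further: TR-FRET binding of GST-Bfl-1 to FITC-labelled Bid peptide via terbium antibody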
T4 sequence (Q07440 whole entry): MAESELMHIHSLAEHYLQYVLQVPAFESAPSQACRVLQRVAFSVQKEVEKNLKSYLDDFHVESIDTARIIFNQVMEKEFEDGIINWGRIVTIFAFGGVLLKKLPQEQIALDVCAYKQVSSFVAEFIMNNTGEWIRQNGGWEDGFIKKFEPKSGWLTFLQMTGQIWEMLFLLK

[13] = target: T4, Bcl-2-related protein A1; test: Bfl-1 binding inhibitors, SAR follow-up, biochemical, fluorescence polarization (AID 1070)
[14] = target: Glyceraldehyde-3-phosphate dehydrogenase (Homo sapiens, UniProt P04406)
Glyceraldehyde-3-phosphate dehydrogenase, sequence (P04406 whole entry): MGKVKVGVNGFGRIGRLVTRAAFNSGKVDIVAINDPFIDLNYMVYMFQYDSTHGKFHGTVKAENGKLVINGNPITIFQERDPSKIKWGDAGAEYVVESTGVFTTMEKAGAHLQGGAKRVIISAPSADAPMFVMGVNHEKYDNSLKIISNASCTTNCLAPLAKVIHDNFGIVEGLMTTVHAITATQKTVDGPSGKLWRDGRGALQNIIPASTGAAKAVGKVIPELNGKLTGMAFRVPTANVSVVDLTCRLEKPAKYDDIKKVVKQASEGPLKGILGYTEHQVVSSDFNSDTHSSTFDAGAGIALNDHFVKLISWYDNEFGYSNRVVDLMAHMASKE

[15] = PAX2 cell-based inhibition, dose response, selectivity assay for PAX8 inhibitor project, plate reader, dry powder samples (AID 743048); type: functional;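 further: HEK293 cells carrying a WT1 promoter luciferase reporter driven by expressed Pax2; potency is for inhibition of Pax2 driven reporter signal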
[16] = target: Paired box protein Pax-8 (Homo sapiens, UniProt Q06710); test: inhibitors of PAX8-driven TPO luciferase reporter, dose response, RMG-I cells, cherry-pick (AID 687027); type: functional, cell-based;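 further: luciferase reporter driven by Pax8 target thyroperoxidase promoter measured by SteadyGlo luminescence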
Paired box protein Pax-8, sequence (Q06710 whole entry): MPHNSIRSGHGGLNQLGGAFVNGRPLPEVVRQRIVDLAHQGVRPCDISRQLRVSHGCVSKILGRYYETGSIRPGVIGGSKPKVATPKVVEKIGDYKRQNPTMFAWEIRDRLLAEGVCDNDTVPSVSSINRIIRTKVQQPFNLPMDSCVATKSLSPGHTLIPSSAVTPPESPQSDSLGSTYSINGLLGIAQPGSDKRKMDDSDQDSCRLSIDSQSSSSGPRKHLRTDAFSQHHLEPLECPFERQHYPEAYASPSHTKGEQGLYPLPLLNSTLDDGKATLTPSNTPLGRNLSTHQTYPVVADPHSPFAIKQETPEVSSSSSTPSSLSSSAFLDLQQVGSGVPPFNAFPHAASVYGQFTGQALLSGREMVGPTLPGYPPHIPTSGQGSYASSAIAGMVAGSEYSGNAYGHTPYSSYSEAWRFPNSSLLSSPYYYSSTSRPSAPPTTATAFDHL

[17] = PAX5 activity inhibitors, dose response, selectivity assay for PAX8 inhibitor project, cell-based, plate reader, dry powder samples (AID 743047); type: functional;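 further: HEK293 cells carrying a Pax5 driven CD19 promoter luciferase reporter; potency of inhibitors that lower reporter luminescence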
[18] = IGROV1 ovarian cancer cell cytotoxicity, dose response, PAX8 inhibitor project, plate reader, dry powder samples (AID 743043); type: functional, cell-based; details: IGROV-1
[19] = cytotoxicity in OV-90 ovarian cancer cells, dose response, PAX8 inhibitor project, cell-based, plate reader, dry powder, SA8 (AID 743149); type: functional
[20] = cytotoxicity dependent on PAX8, dose response, cell-based, plate reader, dry powder (AID 743049); type: functional
[21] = NIH:OVCAR-3 ovarian cancer cell cytotoxicity, dose response, PAX8 inhibitor project, plate reader, dry powder samples (AID 743044); type: functional, cell-based
[22] = cytotoxicity in COV434 cells, dose response, cytotoxicity control for PAX8 inhibitor project, cell-based, plate reader, dry powder, SA7 (AID 743145); type: functional
[23] = A375 melanoma cell cytotoxicity, dose response, counter-screen for MITF inhibitor project, CellTiter-Glo luminescence, dry powder, set 2 (AID 624489); type: functional, cell-based; details: A-375;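 further: actives are compounds lowering A375 viability meaning general cytotoxicity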
[24] = A375 melanoma cell viability loss, dose response, counter-screen for MITF inhibitor project, CellTiter-Glo luminescence, dry powder, set 4 (AID 624364); type: functional, cell-based; details: A-375;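 further: A375 melanoma cells are MITF independent so this is a counter screen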
[25] = system: HEK293; test: HEK293T cell cytotoxicity, dose response, cytotoxicity control, ATP luminescence, cherry-pick samples (AID 687005); type: functional, cell-based; details: Homo sapiens;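 further: cells exposed to compound for 48 hours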
[26] = HEK293 Cytotoxicity Assay Measured in Cell-Based System Using Plate Reader - 7071-01_Inhibitor_Dose_CherryPick_Activity_Set2.; type: functional

**Q.** Which results are given for `Nc1ccccc1SCC(=O)Nc1nc(-c2ccccc2)cs1`?
**A.** IC50 [1]: > 80 µM (inactive); IC50 [2]: > 100 µM (active)

**Q.** For `CN=c1cccccc1S`, which IC50 [3] is on record?
**A.** Its IC50 is > 66 µM (inactive).

**Q.** And the IC50 [4]?
**A.** Its IC50 is 49 µM (inactive).

**Q.** What about the IC50 [5] of the same compound?
**A.** Its IC50 is > 66 µM (inactive).

**Q.** And the IC50 [6]?
**A.** The IC50 was > 100 µM (active).

**Q.** For `O=C(NCC1COc2ccccc2O1)c1cccc(S(=O)(=O)N2CCN(c3ccccc3)CC2)c1` (stereo not given), which IC50 [7] is on record?
**A.** The IC50 was > 69.5 µM (inactive).

**Q.** What about the IC50 [8] of the same compound?
**A.** Its IC50 is > 69.5 µM (inactive).

**Q.** Which IC50 [9] does the source give for `Cc1ccsc1/C=C/C1=Cc2c(sc(NC(=O)CSc3nnc(N)[nH]3)c2C#N)C(C)(C)C1` here?
**A.** Its IC50 is 3.15 µM (active).

**Q.** For `CCCN1C(=O)/C(=C/C=C2\N(CC)c3ccccc3C2(C)C)SC1=S`, which IC50 [9] is on record?
**A.** The IC50 was 5.08 µM (active).

**Q.** With `O=C(COn1nnc2ccc(C(F)(F)F)cc21)Nc1c(Cl)cccc1Cl` as the compound, how does the IC50 [10] read?
**A.** The IC50 was > 67.6 µM (inactive).

**Q.** And the EC50 [11]?
**A.** The EC50 was > 67.6 µM (inactive).

**Q.** What does the source list for `CCN1CCN(C2=C(Cl)C(=O)N(c3ccc(Cl)nc3)C2=O)CC1`?
**A.** IC50 [12]: 20.8 µM (active); IC50 [13]: 15 µM (active); IC50 [14]: > 100 µM (not active)

**Q.** For `CCCC(=O)C1=C(NCCc2c(C)[nH]c3ccc(C)cc23)CCCC1=O`, which IC50 [2] is on record?
**A.** Its IC50 is > 100 µM (active).

**Q.** For `O=C1c2ccccc2C(=O)N1CC(O)CN1CCOCC1` (stereo not given), which IC50 [10] is on record?
**A.** Its IC50 is > 67.5 µM (inactive).

**Q.** And the EC50 [11]?
**A.** The EC50 was > 67.5 µM (inactive).

**Q.** With `CCc1ccc(/C=C2\SC(=S)N(CCCC(=O)N(CCO)c3ccccc3)C2=O)cc1` as the compound, how does the AC50 [15] read?
**A.** The AC50 was 31.9 µM (active).

**Q.** And the AC50 [16]?
**A.** The AC50 was 7.65 µM (active).

**Q.** And the AC50 [17]?
**A.** The AC50 was 33 µM (active).

**Q.** And the AC50 [18]?
**A.** Its AC50 is 9.33 µM (active).

**Q.** What about the AC50 [19] of the same compound?
**A.** Its AC50 is 35.1 µM (active).

**Q.** And the AC50 [20]?
**A.** Its AC50 is 15.1 µM (active).

**Q.** And the AC50 [21]?
**A.** Its AC50 is 29.1 µM (active).

**Q.** What about the AC50 [22] of the same compound?
**A.** The AC50 was 8.05 µM (active).

**Q.** Which AC50 [23] does the source give for `NC1=C(c2ccccc2)C(=O)c2ccccc2C1=O` here?
**A.** Its AC50 is > 70 µM (inactive).

**Q.** What about the AC50 [24] of the same compound?
**A.** Its AC50 is > 70 µM (inactive).

**Q.** Which results are given for `C[C@@H]1CCCCO[C@H](CN(C)Cc2ccccc2)[C@H](C)CN([C@@H](C)CO)C(=O)c2cc(NS(=O)(=O)c3cccs3)ccc2O1`?
**A.** AC50 [25]: 30.9 µM (active); AC50 [26]: 30.9 µM (active)
